Key:
anti-PEG = experiment: Inhibition of PEG-RBC agglutination by polymers/small ethers added to anti-PEG positive sera (anti-PEG epitope study, tube test); type: binding, human; conditions: for Effect on PEG-RBC agglutination (inhibition): three 4+ anti-PEG positive sera, 1% (w/v) final concentration; for Agglutination Score of PEG-RBCs: compound added at 1% w/v, PBS control 4+
Description: One drop of RBCs (PEG-coated or control (uncoated) RBCs) at 5% hct were added to 2 drops of plasma. Samples were incubated at room temperature for 15 minutes and then centrifuged at 1000×g for 1 minute. Agglutination of PEG-coated or uncoated (control) RBCs by each plasma sample was scored according to the 0-4+ scale.
The polymer and small ether solutions were added to anti-PEG positive sera at a 1:1 (v/v) ratio giving a final polymer/small ether concentration of 1% (w/v) and incubated for 30 minutes at room temperature. […] Inhibition of agglutination by the smallest ether molecule tested determined the anti-PEG epitope.

[1] = ASNase activity in sera of PEG-ASNase-treated ALL patients (microplate technique) versus anti-PEG status; type: in vivo, human
Description: Stored serum samples were collected from 28 pediatric acute lymphoblastic leukemia (ALL) patients who received the chemotherapy agent, PEG-conjugated asparaginase (PEG-ASNase). Sera were assayed for ASNase activity using a microplate technique. Testing for anti-PEG was performed by serology as described in Example 1 and by flow cytometry as described in Example 3.

## CCOCCOCCOCC [Diethylene Glycol Diethyl Ether]
anti-PEG
  Effect on PEG-RBC agglutination (inhibition): reduced PEG-RBC agglutination (4+ to 2+)

## OCCOCCO [Diethylene Glycol]
anti-PEG
  Effect on PEG-RBC agglutination (inhibition): no effect

## OCCO [Ethlyene Glycol]
anti-PEG
  Effect on PEG-RBC agglutination (inhibition): no effect

## COCCOCCOCCOCCOC [Tetraethylene Glycol Dimethyl Ether]
anti-PEG; Anti-PEG Positive Donor A
  Agglutination Score of PEG-RBCs: 0^
anti-PEG; Anti-PEG Positive Donor B
  Agglutination Score of PEG-RBCs: 0^
anti-PEG; Anti-PEG Positive Donor C
  Agglutination Score of PEG-RBCs: 0^
anti-PEG
  Effect on PEG-RBC agglutination (inhibition): Complete inhibition of agglutination

## COCCOCCOCCOC [Triethylene Glycol Dimethyl Ether]
anti-PEG; Anti-PEG Positive Donor A
  Agglutination Score of PEG-RBCs: 0^
anti-PEG; Anti-PEG Positive Donor B
  Agglutination Score of PEG-RBCs: 0^
anti-PEG; Anti-PEG Positive Donor C
  Agglutination Score of PEG-RBCs: 0^
anti-PEG
  Effect on PEG-RBC agglutination (inhibition): Complete inhibition of agglutination

## OCCOCCOCCO [Triethylene Glycol]
anti-PEG
  Effect on PEG-RBC agglutination (inhibition): no effect

B1: PEG-asparaginase: chemotherapy agent, PEG-conjugated asparaginase (PEG-ASNase) (conjugate, UniProt P00805 23-348, looked up)
L-asparaginase 2: LPNITILATGGTIAGGGDSATKSNYTVGKVGVENLVNAVPQLKDIANVKGEQVVNIGSQDMNDNVWLTLAKKINTDCDKTDGFVITHGTDTMEETAYFLDLTVKCDKPVVMVGAMRPSTSMSADGPFNLYNAVVTAADKASANRGVLVVMNDTVLDGRDVTKTNTTDVATFKSVNYGPLGYIHNGKIDYQRTPARKHTSDTPFDVSKLNELPKVGIVYNYANASDLPAKALVDAGYDGIVSAGVGNGNLYKSVFDTLATAAKTGTAVVRSSRVPTGATTQDAEVDDAKYGFVASGTLNPQKARVLLQLALTQTKDPQQIQQIFNQY
modifications: PEG conjugate
[1]; IgM anti-PEG positive patients by flow cytometry (n=13)
  mean ASNase activity: 12 U/L
[1]; all anti-PEG positive patient sera, serology or flow cytometry
  ASNase activity: low or undetectable
[1]; anti-PEG negative patients by flow cytometry (n=15)
  mean ASNase activity: 438 U/L
[1]; anti-PEG negative patients by serology (n=19)
  mean ASNase activity: 353 U/L
[1]; anti-PEG positive patients by serology (n=9)
  ASNase activity: undetectable
[1]; one anomalous sample, weakly positive for anti-PEG IgM and positive for anti-ASNase
  ASNase activity: 123 U/L

— US20080145876A1, “POLY(ETHYLENE GLYCOL) ANTI-BODY DETECTION ASSAYS AND KITS FOR PERFORMING THEREOF” (University of Southern California, priority 2006, published 2008)
